Test results: EP4700019A1, “CRYSTAL FORM OF 1,5-DIHYDRO-2,4-BENZODIAZEPINE-3-ONE DERIVATIVE CITRATE, PREPARATION METHOD, AND USE THEREOF” (priority 2023, dated 2024)
Counter-ions that a name gives are not always drawn. Like-named read-outs stand apart in the source and are kept apart here.

Experiments:
[1] = Stability test (high humidity, light, high temperature, high temperature stress; HPLC); type: physicochemical
Description: These samples were stored under two different conditions: (1) relative humidity of 92.5% at 25°C, and (2) relative humidity of 75% ± 1% at room temperature; The samples were maintained under these conditions for 10 days. Sampling was performed on day 0 and day 10, followed by HPLC analysis.
HPLC analysis was performed on day 0 and day 10.
Samples were collected and subjected to HPLC analysis.

[2] = type: physicochemical; details: Water, 25°C ± 2°C
Description: An appropriate amount of the test substance was accurately weighed And placed under conditions of 25°C ± 2°C. Different solvents were added in suitable quantities, and the mixture was vigorously shaken for 30 seconds every 5 minutes, and the dissolution status was observed over a period of 30 minutes. […]

[3] = Pharmacokinetics and bioavailability test in beagle dogs (Test Example 3); type: in vivo; details: for bioavailability: absolute oral bioavailability
Description: Six healthy male beagle dogs were randomly divided into three groups, with two dogs in each group. […] Blood samples were collected from the forelimb vein of the dogs before and at various time points after administration. Plasma drug concentrations at different times were measured by LC-MS/MS. Pharmacokinetic parameters and the absolute oral bioavailability were calculated using WinNonlin7.0 software.

[4] = Stability test (high humidity, light, high temperature, high temperature stress; HPLC); type: physicochemical; remark: listed apart in the source
[5] = Pharmacokinetics and bioavailability test in beagle dogs (Test Example 4); type: in vivo
Description: Experimental method: Six healthy beagle dogs were randomly divided into two groups, with two dogs (one female and one male) in the first group, and four dogs (two females and two males) in the second group. […] Blood samples were collected from the forelimb veins of beagle dogs at various time points before and after administration. Plasma was obtained by centrifugation, and drug concentrations in plasma at different time points were measured using LC-MS/MS. Pharmacokinetic parameters and the absolute oral bioavailability were calculated using WinNonlin8.0 software.

5-HT2B receptors = 5-HT2B receptors (Homo sapiens, UniProt P41595); details: no significant affinity; cited from earlier work
adrenergic receptors = details: no significant affinity; cited from earlier work
muscarinic receptors = details: no significant affinity; cited from earlier work
[6] = target: calcium channel receptors; details: no significant affinity; cited from earlier work
[7] = target: dopamine receptors (including D2 receptors); details: no significant affinity; cited from earlier work
[8] = 75% High humidity for 10 days, room temperature
[9] = 92.5% High humidity for 10 days, 25°C
[10] = PO 5 mg/kg (calculated as free base), capsules, male beagle dogs, plasma
[11] = High temperature of 40 °C for 10 days
[12] = High temperature of 60 °C for 10 days
[13] = High temperature of 105 °C for 1 day
[14] = Light exposure for 10 days (5000 lx ± 500 lx; UV 90 µW/cm^2)
[15] = PO 10 mg/kg (calculated based on free base), capsule
[16] = both sexes, dog, plasma, PO 10 mg/kg (calculated based on free base), capsule
[17] = IV 0.69 mg/kg (calculated based on free base)
[18] = dog, in vivo, IV 0.69 mg/kg (calculated based on free base)

Chain of 5-HT2B receptors (P41595 whole entry): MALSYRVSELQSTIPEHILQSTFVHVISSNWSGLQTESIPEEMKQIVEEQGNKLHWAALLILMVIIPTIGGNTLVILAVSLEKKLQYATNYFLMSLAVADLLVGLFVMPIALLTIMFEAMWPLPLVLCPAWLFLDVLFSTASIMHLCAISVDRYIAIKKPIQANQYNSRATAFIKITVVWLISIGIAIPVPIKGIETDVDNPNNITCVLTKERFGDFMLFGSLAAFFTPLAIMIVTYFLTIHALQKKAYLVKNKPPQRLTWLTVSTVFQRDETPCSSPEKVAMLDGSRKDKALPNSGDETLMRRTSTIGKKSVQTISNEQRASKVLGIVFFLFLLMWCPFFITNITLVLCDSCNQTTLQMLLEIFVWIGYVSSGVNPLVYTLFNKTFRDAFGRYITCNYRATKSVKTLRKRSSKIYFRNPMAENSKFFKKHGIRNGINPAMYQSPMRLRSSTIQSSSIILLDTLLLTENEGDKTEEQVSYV

Question: Which results are given for `CN1CCC(N2Cc3cc(F)ccc3CN(Cc3ccc(OC4CC4)cc3)C2=O)CC1` [Base compound, 2-(4-cyclopropyloxybenzyl)-7-fluoro-4-(1-methylpiperidin-4-yl)-1,2,4-tetrahydro-3H-benzo[e][1,3]d iazepine-3-one]?
Answer: HPLC determination results of the stability [1, 8]: 97.643%; HPLC determination results of the stability [1, 9]: 97.703%; HPLC determination results of the stability ([1]; original sample (0 day)): 98.018%; Conclusion (solubility) [2]: insoluble; AUC0-last [3, 10]: 43.9 ng·h/mL; Cmax [3, 10]: 10.2 ng/mL; bioavailability ([3]; PO 5 mg/kg (calculated as free base), capsules, male beagle dogs): 2.4%; HPLC determination results of the stability [4, 11]: 95.418%; HPLC determination results of the stability [4, 12]: 82.682%; HPLC determination results of the stability [4, 13]: 76.929%; HPLC determination results of the stability [4, 14]: 95.604%

Question: With `CN1CCC(N2Cc3cc(F)ccc3CN(Cc3ccc(OC4CC4)cc3)C2=O)CC1.O=C(O)CC(O)(CC(=O)O)C(=O)O` [Crystalline form II, 2-(4-cyclopropyloxybenzyl)-7-fluoro-4-(1-methylpiperidin-4-yl)-1,2,4,5-tetrahydro-3H-benzo[e] [1,3]diazepine-3-one citrate] as the compound, how does the “HPLC determination results of the stability” value (“HPLC determination results” below) [1, 8] read?
Answer: Its value is 99.749%.

Question: What about the “HPLC determination results” value [1, 9] of the same compound?
Answer: The value was 99.735%.

Question: What about the “HPLC determination results” value ([1]; original sample (0 day)) of the same compound?
Answer: Its value is 99.839%.

Question: What about the “Conclusion (solubility)” value ([2]; citrate) of the same compound?
Answer: The value was “Very Slightly Soluble”.

Question: What about the bioavailability ([3]; dog, plasma, PO 5 mg/kg (calculated as free base), capsules, male beagle dogs, read-out: bioavailability) of the same compound?
Answer: The bioavailability was 7.4%.

Question: And the AUC(0-t) ([3]; dog, PO 5 mg/kg (calculated as free base), capsules, male beagle dogs, plasma)?
Answer: Its AUC(0-t) is 139 ng·h/mL.

Question: What about the Cmax ([3]; dog, PO 5 mg/kg (calculated as free base), capsules, male beagle dogs, plasma, read-out: Cmax) of the same compound?
Answer: The Cmax was 38.8 ng/mL.

Question: And the “increase of bioavailability compared with the base compound” value ([3]; oral solid dosage form, PO 5 mg/kg, beagle dogs)?
Answer: The value was “more than 3 times”.

Question: And the AUC_%Extrap [5, 15]?
Answer: The AUC_%Extrap was 2.12%.

Question: And the MPT0-last [5, 15]?
Answer: Its MPT0-last is 6.62 h.

Question: What about the Rsq_adj [5, 15] of the same compound?
Answer: The Rsq_adj was 1.00.

Question: What about the AUC(0-inf) [5, 16] of the same compound?
Answer: The AUC(0-inf) was 6400 ng·h/mL.

Question: What about the AUC(0-t) [5, 16] of the same compound?
Answer: Its AUC(0-t) is 6280 ng·h/mL.

Question: And the Cmax [5, 16]?
Answer: Its Cmax is 754 ng/mL.

Question: What about the Tmax [5, 16] of the same compound?
Answer: Its Tmax is 2.25 h.

Question: And the half-life [5, 16]?
Answer: The half-life was 3.96 h.

Question: And the bioavailability ([5]; both sexes, dog, plasma, PO 10 mg/kg (calculated based on free base), capsule, absolute oral bioavailability)?
Answer: Its bioavailability is 94.8%.

Question: And the “HPLC determination results” value [4, 11]?
Answer: Its value is 99.756%.

Question: What about the “HPLC determination results” value [4, 12] of the same compound?
Answer: The value was 99.723%.

Question: What about the “HPLC determination results” value [4, 13] of the same compound?
Answer: Its value is 99.709%.

Question: And the “HPLC determination results” value [4, 14]?
Answer: Its value is 99.762%.

Question: Which Ki (5-HT2B receptors) does the source give for `CC(C)COc1ccc(CNC(=O)N(Cc2ccc(F)cc2)C2CCN(C)CC2)cc1` [Pimavanserin] here?
Answer: Its Ki is > 300 nM.

Question: What about the Ki (adrenergic receptors) of the same compound?
Answer: Its Ki is > 300 nM.

Question: And the Ki (muscarinic receptors)?
Answer: The Ki was > 300 nM.

Question: What about the Ki [6] of the same compound?
Answer: Its Ki is > 300 nM.

Question: And the Ki [7]?
Answer: Its Ki is > 300 nM.

Question: For `CN1CCC(N2Cc3cc(F)ccc3CN(Cc3ccc(OC4CC4)cc3)C2=O)CC1` [citrate, 2-(4-cyclopropyloxybenzyl)-7-fluoro-4-(1-methylpiperidin-4-yl)-1,2,4-tetrahydro-3H-benzo[e][1 ,3]diazepine-3-one citrate], which AUC(0-t) ([3]; dog, in vivo, IV 1 mg/kg, male beagle dogs, plasma) is on record?
Answer: The AUC(0-t) was 348 ng·h/mL.

Question: What about the Cmax ([3]; dog, in vivo, IV 1 mg/kg, male beagle dogs, plasma, read-out: Cmax) of the same compound?
Answer: Its Cmax is 138 ng/mL.

Question: And the AUC_%Extrap [5, 17]?
Answer: Its AUC_%Extrap is 4.20%.

Question: And the MPT0-last [5, 17]?
Answer: The MPT0-last was 4.41 h.

Question: What about the Rsq_adj [5, 17] of the same compound?
Answer: The Rsq_adj was 1.00.

Question: And the AUC(0-inf) [5, 18]?
Answer: The AUC(0-inf) was 466 ng·h/mL.

Question: And the AUC(0-t) [5, 18]?
Answer: Its AUC(0-t) is 447 ng·h/mL.

Question: What about the Cmax [5, 18] of the same compound?
Answer: The Cmax was 220 ng/mL.

Question: What about the Tmax [5, 18] of the same compound?
Answer: The Tmax was 0.08 h.

Question: And the clearance [5, 18]?
Answer: Its clearance is 24.7 mL/min/kg.

Question: What about the half-life [5, 18] of the same compound?
Answer: Its half-life is 2.2 h.

Question: What about the Vd ([5]; dog, in vivo, IV 0.69 mg/kg (calculated based on free base), read-out: Vdss) of the same compound?
Answer: The Vd was 2.5 L/kg.
